The values below come from patent US8759348B2, “Use of 4-(pyrrolidin-1-yl)quinoline compounds to kill clinically latent microorganisms” (Helperby Therapeutics Limited, priority 2007, dated 2014).

In the test the test system is persister Mycobacterium tuberculosis. In kind it is cell-based. Particulars: 10 μg/mL of test compound.

`Cc1cc(N2CCC(Cc3ccccc3)C2)c2cc(Oc3ccccc3)ccc2n1.Cl` (stereo not shown) [Example 8, 4-(3-Benzylpyrrolidin-1-yl)-2-methyl-6-phenoxyquinoline hydrochloride] yielded a log kill of 2.26.
